Experimental data taken from patent publication US5932575A, “Cardiac diseases improving agents” (Kureha Chemical Industry Co., Ltd., priority 1997, dated 1999).
“And” between values parts separate entries of the source, which are not always exact repeats. Equal values may be shown once. One block for each molecule: values may come before it.

Tests used:
rats with renal diseases [1] = settings: J. Pharmacol. Exp. Ther., 267: 657-663, 1993; cited from earlier work
[2] = test system: SHR rats, 3/4NPX cardiac hypertrophy model; test: Inhibitory action of myocardial disturbance, Test 1 (3/4NPX cardiac hypertrophy model); format: in vivo
Protocol: SHR rats were divided into control group and test group each having three animals and both groups were treated with 3/4NPX, an experimental cardiac hypertrophy model prepared by 3/4 partial nephrectomy, after eight weeks. […] After the oral administration,kidneys and heart were excised and their weight was determined.

[3] = test system: SHR rats, 3/4 NPX cardiac hypertrophy model; test: Inhibitory action of myocardial disturbance, Test 2 (3/4 NPX cardiac hypertrophy model); format: in vivo
Protocol: Similarly, 3/4 NPX (cardiac hypertrophy model caused by 3/4 partial nephrectomy) was carried out at four weeks point in a control group and test group of SHR rats each having two and three animals. […] After 11 weeks, kidneys and heart were excised and their weight was determined.

ICR mice = test: Acute toxicity (oral, single dose); format: in vivo; settings: 500 mg/kg oral once, 0.5% methylcellulose, after six days
Protocol: Female 5-week-old ICR mice were divided to groups each having five animals and acclimated for a week. Compound Nos. 1-3, 7, 8, 11 and 13 each was dissolved or dispersed in 0.5% methylcelulose aqueous solution, respectively, and orally administered once at a dose of 500 mg/kg, then the number of dead animals was counted after six days.

[4] = test system: angiotensin converting enzyme (ACE); settings: cited from earlier work
angiotensin II receptor = settings: cited from earlier work
type 2 (AT2) receptor = biological target: T1, type 2 (AT2) receptor (Bos taurus, UniProt G5E6F7); test: Affinity to angiotensin II type 2 receptor (binding assay); parameters: species or system bovine; settings: 37° C., one hour
T1 construct: Receptor: Derived from bovine cerebellum; from tissue; host or cells: bovine cerebellum
T1 sequence (G5E6F7 1-362): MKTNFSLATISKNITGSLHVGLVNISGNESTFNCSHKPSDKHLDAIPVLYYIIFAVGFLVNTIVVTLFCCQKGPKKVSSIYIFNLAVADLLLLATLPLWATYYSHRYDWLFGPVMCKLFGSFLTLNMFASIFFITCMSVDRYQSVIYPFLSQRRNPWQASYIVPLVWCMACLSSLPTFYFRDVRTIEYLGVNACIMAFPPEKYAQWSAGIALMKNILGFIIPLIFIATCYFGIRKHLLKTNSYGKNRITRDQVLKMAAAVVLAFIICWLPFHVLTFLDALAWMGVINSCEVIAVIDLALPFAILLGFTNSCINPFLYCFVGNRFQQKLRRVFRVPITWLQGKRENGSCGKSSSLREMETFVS
Protocol: Practically, determination of total binding of each compound was carried out as follows. A mixture of 0.025 ml of a predetermined concentration of test compound prepared by dissolving in DMSO, dilution with a buffer attached to the drug discovery system to 2-fold solution, 0.025 ml of a tracer and 0.2 ml of a receptor to make total volume of 0.25 ml was incubated at room temperature for three hours for type 1 angiotensin II (AT1) receptor or at 37° C. for one hour for type 2 (AT2) receptor. The reaction mixture was filtered under suction with CF/C filter paper for AT1 and CF/B filter paper for AT2. The used filter paper having the combination of the tracer and the receptor was determined with a γ-well counter (ARC-500, Aloka). Non-specific binding was determined with a similar manner by adding a large excess amount of displacer. The specific binding of test compound at a predetermined concentration was obtained by subtracting non-specific binding from respective total binding. In AT1, and AT2, a predetermined concentrations of test compound and a control compound were used to give the inhibitory rate, IC50 value of 50% inhibition, or binding inhibitory % at 100 μM, for binding of a radioactive ligand (tracer) and the receptor.
Receptor: Derived from bovine cerebellum
Tracer: ^125 ITyr^4angiotensin II
Control compound: Angiotensin II (human)
(Displacer): Angiotensin II (human)

rats with renal diseases [5] = test: Hypotensive action in rats with experimental renal disease (tail cuff); format: in vivo, rats (female Sprague-Dawley)
Protocol: The compounds of the present invention and a comparative compound, Dup 753, were orally administered by gavage to rats with renal diseases and hypotensive action was determined. Rats with experimental renal disease were prepared with conventional method by ligating branch of renal artery. That is, female Sprague-Dawley rats were anesthetized, left renal hilus was exposed and three of four second branches of renal artery were ligated remaining one branch. One week later, further right renal hilus including artery, vein and ureter was ligated to reduce renal function up to about 1/8 to those of normal animals. Rats were divided to make eight animals in one group, and 20 mg/kg of one test compound and water as a control were administered to each group. After two days, systolic blood pressure was determined with a blood pressure determination apparatus using tail cuff method (UR5000, Ueda Manufacturing Co., Ltd.).

[6] = test group average, 20 mg/kg in drinking water four weeks, after 16 weeks
[7] = test group individual animals 1-3 in order, 20 mg/kg, after 16 weeks, 20 mg/kg
[8] = test group average, 20 mg/kg in drinking water, after 9 weeks
[9] = test group average, 20 mg/kg in drinking water, after 11 weeks
[10] = test group individual animals 1-3 in order, 20 mg/kg, after 9 weeks, 20 mg/kg
[11] = test group individual animals 1-3 in order, 20 mg/kg, after 11 weeks, 20 mg/kg
[12] = J. Clin. Pharmacol., 30:155-158, 1990

SMILES: CCCN(Cc1ccc(-c2ccccc2-c2nnn[nH]2)cc1)c1ncccc1C(=O)O [A-81988, 2-[N-propyl-N-[[2'-(1H-tetrazol-5-yl)biphenyl-4-yl]methyl]amino]-pyridine-3-carboxylic acid]
- hypotension (in words) (rats with renal diseases [1]): accompanied with hypotension
- proteinuria (in words) (rats with renal diseases [1]): improvement in proteinuria

SMILES: CCCCC(=O)N(Cc1ccc(C(=O)OCCN(C)C)cc1)c1cc(C(=O)N2CCOCC2)ccc1N(C)C [Compound No. 1, 4-dimethylamino-3-N-[[[4-(2'-dimethylaminoethoxycarbonyl)phenyl]-methyl]valeramido]benzoic acid morpholide]
- cardiac disturbance (in words) ([2]; Test 1, 20 mg/kg): inhibited cardiac disturbance
- heart weight (in words) ([2]; Test 1, 20 mg/kg): decrease of heart weight due to cardiac hypertrophy
- hypotension or kidney disturbance (in words) ([2]; Test 1, 20 mg/kg): without inducing hypotension or kidney disturbance
- kidney weight (in words) ([2]; Test 1, 20 mg/kg): decreased inhibition of kidney weight increase
- BP: blood pressure, average [2, 6]: 232 mmHg
- BUN: blood urea nitrogen, average [2, 6]: 58 mg/dL
- BW: body weight, average [2, 6]: 385 g
- CCr: creatinine clearance, average [2, 6]: 0.76 mL/min
- Cr: blood creatinine, average [2, 6]: 1.0 mg/dL
- HW: heart weight, average [2, 6]: 1.493 g
- KW: kidney weight, average [2, 6]: 1.451 g
- RW: relative weight (heart), average [2, 6]: 0.388%
- RW: relative weight (kidney), average [2, 6]: 0.376%
- U-Pro.: urinary protein, average [2, 6]: 114.6 mg/day
- BP: blood pressure, individual animal [2, 7]: 247 mmHg and 221 mmHg and 229 mmHg
- BUN: blood urea nitrogen, individual animal [2, 7]: 55 mg/dL and 50 mg/dL and 70 mg/dL
- BW: body weight, individual animal [2, 7]: 415 g and 346 g and 394 g
- CCr: creatinine clearance, individual animal [2, 7]: 0.88 mL/min and 0.74 mL/min and 0.66 mL/min
- Cr: blood creatinine, individual animal [2, 7]: 1.0 mg/dL and 0.9 mg/dL and 1.2 mg/dL
- HW: heart weight, individual animal [2, 7]: 1.546 g and 1.326 g and 1.606 g
- KW: kidney weight, individual animal [2, 7]: 1.515 g and 1.269 g and 1.568 g
- RW: relative weight (heart), individual animal [2, 7]: 0.373% and 0.383% and 0.408%
- RW: relative weight (kidney), individual animal [2, 7]: 0.365% and 0.366% and 0.398%
- U-Pro.: urinary protein, individual animal [2, 7]: 119.8 mg/day and 50.5 mg/day and 174.6 mg/day
- heart weight (in words) ([3]; Test 2, 20 mg/kg): declined heart weight
- myocardial disturbance (in words) ([3]; Test 2, 20 mg/kg): inhibition of myocardial disturbance
- urinary protein (in words) ([3]; Test 2, 20 mg/kg): significant decrease of urinary protein
- BP: blood pressure, average [3, 8]: 214 mmHg
- BUN: blood urea nitrogen, average [3, 8]: 44 mg/dL
- BW: body weight, average [3, 8]: 258 g
- CCr: creatinine clearance, average [3, 8]: 0.64 mL/min
- Cr: blood creatinine, average [3, 8]: 0.7 mg/dL
- U-Pro.: urinary protein, average [3, 8]: 43.3 mg/day
- BP: blood pressure, average [3, 9]: 237 mmHg
- BUN: blood urea nitrogen, average [3, 9]: 56 mg/dL
- BW: body weight, average [3, 9]: 286 g
- CCr: creatinine clearance, average [3, 9]: 0.67 mL/min
- Cr: blood creatinine, average [3, 9]: 0.8 mg/dL
- HW: heart weight, average [3, 9]: 1.078 g
- KW: kidney weight, average [3, 9]: 1.350 g
- RW: relative weight (heart), average [3, 9]: 0.378%
- RW: relative weight (kidney), average [3, 9]: 0.473%
- U-Pro.: urinary protein, average [3, 9]: 65.4 mg/day
- BP: blood pressure, individual animal [3, 10]: 205 mmHg and 219 mmHg and 214 mmHg
- BUN: blood urea nitrogen, individual animal [3, 10]: 41 mg/dL and 45 mg/dL and 47 mg/dL
- BW: body weight, individual animal [3, 10]: 263 g and 254 g and 256 g
- CCr: creatinine clearance, individual animal [3, 10]: 0.83 mL/min and 0.51 mL/min and 0.58 mL/min
- Cr: blood creatinine, individual animal [3, 10]: 0.6 mg/dL and 0.8 mg/dL
- U-Pro.: urinary protein, individual animal [3, 10]: 38.7 mg/day and 41.5 mg/day and 49.8 mg/day
- BP: blood pressure, individual animal [3, 11]: 217 mmHg and 259 mmHg and 234 mmHg
- BUN: blood urea nitrogen, individual animal [3, 11]: 44 mg/dL and 50 mg/dL and 58 mg/dL
- BW: body weight, individual animal [3, 11]: 299 g and 271 g and 287 g
- CCr: creatinine clearance, individual animal [3, 11]: 0.79 mL/min and 0.55 mL/min and 0.67 mL/min
- Cr: blood creatinine, individual animal [3, 11]: 0.7 mg/dL and 0.8 mg/dL and 1.0 mg/dL
- HW: heart weight, individual animal [3, 11]: 1.113 g and 1.018 g and 1.106 g
- KW: kidney weight, individual animal [3, 11]: 1.364 g and 1.319 g and 1.368 g
- RW: relative weight (heart), individual animal [3, 11]: 0.372% and 0.376% and 0.385%
- RW: relative weight (kidney), individual animal [3, 11]: 0.456% and 0.487% and 0.477%
- U-Pro.: urinary protein, individual animal [3, 11]: 46.9 mg/day and 40.5 mg/day and 108.7 mg/day

SMILES: CCCCC(=O)N(Cc1ccc(C(=O)O)cc1)c1cc(C(=O)N2CCOCC2)ccc1N(C)C [Compound No. 7, 3-N-[[(4-Carboxyphenyl)methy)valeramido]-4-dimethylaminobenzoic acid morpholide]
- number of dead animals (ICR mice): No dead animals was found

SMILES: CCCCC(=O)N(Cc1ccc(C(=O)O)cc1)c1cc(C(=O)N2CCOCC2)ccc1C [Compound No. 8, 4-Methyl-3-N-[[4-(carboxyphenyl)methyl]valeramido]benzoic acid morpholide]
- number of dead animals (ICR mice): No dead animals was found

SMILES: CCCCC(=O)N(Cc1ccc(-c2nn[nH]n2)cc1)c1cc(C(=O)N2CCOCC2)ccc1N(C)C [Compound No. 13, 4-Dimethylamino-3-N-[[4-(1H-tetrazol-5-yl)phenylmethyl]valeramido]benzoic acid morpholide]
- number of dead animals (ICR mice): No dead animals was found

SMILES: CCOC(=O)[C@H](CCc1ccccc1)N[C@@H](C)C(=O)N1CCC[C@H]1C(=O)O [Enalapril]
- blood pressure (in words) [4, 12]: lower blood pressure
- renal dysfunction (in words) [4, 12]: improve the progress of renal dysfunction
- adverse reactions (in words) [4]: dry cough or adverse reaction of acute renal failure

SMILES: C[C@H](CS)C(=O)N1CCC[C@H]1C(=O)O [Captopril]
- blood pressure (in words) [4, 12]: lower blood pressure
- adverse reactions (in words) [4]: dry cough or adverse reaction of acute renal failure

SMILES: CCCCC(=O)N(Cc1ccc(-c2ccccc2-c2nn[nH]n2)cc1)c1cc(C(=O)N2CCOCC2)ccc1N(C)C [Compound No. 11]
- number of dead animals (ICR mice): No dead animals was found

- inhibition at 100 µM (type 2 (AT2) receptor): 0%
SMILES: CCCCc1nc(Cl)c(CO)n1Cc1ccc(-c2ccccc2-c2nnn[nH]2)cc1 [DuP753, 2-butyl-4-chloro-5-(hydroxymethyl)-1-[[2'-(1H-tetrazol-5-yl)biphenyl-4-yl]methyl]imidazole]
- antagonistic action to angiotensin II receptor (in words) (angiotensin II receptor): potent antagonistic action to angiotensin II receptor
- Blood pressure (average systolic) (rats with renal diseases [5]; 20 mg/kg oral gavage, after two days, control (water) 210): 130 mmHg
- effect on blood pressure (in words) (rats with renal diseases [5]; 20 mg/kg oral, compared with control group): marked hypotension
